Measurements from patent US11753407B2, “Compounds for treating spinal muscular atrophy” (PTC Therapeutics, Inc., priority 2012, dated 2023).

Tests used:
[1] = test system: Smn protein in SMA patient fibroblast cells (GM03813); assay: Smn protein assay in cultured cells (SMN HTRF); assay type: cell-based, human; settings: SMA patient fibroblast cells, 48 hours; for EC1.5x for Smn protein expression: 7-point concentration curve, SMN HTRF, concentration producing 1.5 times Smn protein vs DMSO vehicle control; for maximum fold (Fold) increase of Smn protein: 7-point concentration data, fold relative to vehicle control
Outline: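 Read-out: HTRF 665/620 nm ratio, blank-subtracted as ΔF, then expressed as fold over DMSO vehicle. Fibroblasts from SMA patients were exposed to compounds for 48 h (7 points, 3.16-fold steps, triplicates). Values are EC1.5× and maximum fold Smn increase.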

[2] = test system: SMN2 minigene mRNA (SMN2-A minigene) in HEK293H cells; assay: SMN2 minigene mRNA splicing RT-qPCR assay in cultured cells; assay type: cell-based, human; settings: Homo sapiens, HEK293-H; concentration increasing full length SMN2 mRNA 1.5-fold relative to vehicle-treated cells; HEK293H cells with SMN2-A minigene, 24 hours, 7-point concentration data; read-out: EC1.5x for production of full length SMN2 mRNA
Outline: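 Read-out: minigene-specific full-length (exon 7-included) SMN2 mRNA by one-step multiplex RT-qPCR, normalized to GAPDH and divided by vehicle-treated level. Stable SMN2-A minigene HEK293H cells, 24 h compound exposure, 7 concentrations in duplicate. EC1.5× = concentration raising FL mRNA 1.5-fold.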

Row | melting point [°C] | SMILES | EC1.5x for Smn protein expression [1] | maximum fold (Fold) increase of Smn protein [1] | EC (1.5-fold increase) [2] [µM]
1 | 202 to 205 | COc1ccc(-c2ccc3nc(C4CCN(C)CC4)cc(=O)n3c2)cc1F [Compound 317, 7-(3-fluoro-4-methoxyphenyl)-2-(1-methylpiperidin-4-yl)-4H-pyrido[1,2-a]pyrimidin-4-one] | ** (an EC1.5× between >1 μM and ≤3 μM is indicated by two stars (**)) | **** (a fold increase between >1.5 and ≤1.65 is indicated by four stars (****)) | 0.3 to 1
2 | 288 to 290 | CCN1CCN(c2ccc3cc(-c4ccc5nc(C)oc5c4)cc(=O)n3c2)C[C@@H]1C [Compound 324, 7-[(3S)-4-ethyl-3-methylpiperazin-1-yl]-2-(2-methyl-1,3-benzoxazol-6-yl)-4H-quinolizin-4-one] | – | *** (a fold increase between >1.35 and ≤1.5 is indicated by three stars (***)) | 0.3 to 1
3 | > 300 | Cc1nc2ccc(-c3cc(=O)n4cc(N5CCN(C)[C@@H](C)C5)ccc4c3)cc2o1 [Compound 325, 7-[(3S)-3,4-dimethylpiperazin-1-yl]-2-(2-methyl-1,3-benzoxazol-6-yl)-4H-quinolizin-4-one] | – | *** (a fold increase between >1.35 and ≤1.5 is indicated by three stars (***)) | 0.3 to 1
4 | 288 to 290 | Cc1nc2ccc(-c3cc(=O)n4cc(N5CCC(N)CC5)ccc4c3)cc2o1 [Compound 326, 7-(4-aminopiperidin-1-yl)-2-(2-methyl-1,3-benzoxazol-6-yl)-4H-quinolizin-4-one] | ** (an EC1.5× between >1 μM and ≤3 μM is indicated by two stars (**)) | *** (a fold increase between >1.35 and ≤1.5 is indicated by three stars (***)) | 1 to 3
5 | 198 to 202 | COc1ccc(-c2cc(=O)n3cc(N4CCN[C@@H](C)C4)cc(C)c3n2)cc1F [Compound 327, 2-(3-fluoro-4-methoxyphenyl)-9-methyl-7-[(3S)-3-methylpiperazin-1-yl]-4H-pyrido[1,2-a]pyrimidin-4-one] | **** (an EC1.5x≤0.3 μM is indicated by four stars (****)) | **** (a fold increase between >1.5 and ≤1.65 is indicated by four stars (****)) | < 0.1
6 | 141 to 145 | COc1ccc(-c2cc(=O)n3cc(N4CCC(N(C)C)CC4)cc(C)c3n2)cc1F [Compound 328, 7-[4-(dimethylamino)piperidin-1-yl]-2-(3-fluoro-4-methoxyphenyl)-9-methyl-4H-pyrido[1,2-a]pyrimidin-4-one] | – | *** (a fold increase between >1.35 and ≤1.5 is indicated by three stars (***)) | < 0.1
7 | 198 to 203 | COc1ccc(-c2cc(=O)n3cc(C4CCN(C)CC4)cc(C)c3n2)cc1F [Compound 329, 2-(3-fluoro-4-methoxyphenyl)-9-methyl-7-(1-methylpiperidin-4-yl)-4H-pyrido[1,2-a]pyrimidin-4-one] | ** (an EC1.5× between >1 μM and ≤3 μM is indicated by two stars (**)) | **** (a fold increase between >1.5 and ≤1.65 is indicated by four stars (****)) | < 0.1
8 | 141 | COc1ccc(-c2cc(=O)n3cc(N4CCC(NC5CC5)CC4)cc(C)c3n2)cc1OC [Compound 330, 7-[4-(cyclopropylamino)piperidin-1-yl]-2-(3,4-dimethoxyphenyl)-9-methyl-4H-pyrido[1,2-a]pyrimidin-4-one] | – | ** (a fold increase between >1.2 and ≤1.35 is indicated by two stars (**)) | 0.1 to 0.3
9 | 258 to 262 | Cc1cn2cc(-c3cc(=O)n4cc(N5CCN(C)[C@@H](C)C5)ccc4n3)cc(Cl)c2n1 [Compound 331, 2-(8-chloro-2-methylimidazo[1,2-a]pyridin-6-yl)-7-[(3S)-3,4-dimethylpiperazin-1-yl]-4H-pyrido[1,2-a]pyrimidin-4-one] | **** (an EC1.5x≤0.3 μM is indicated by four stars (****)) | ***** (a fold increase >1.65 is indicated by five stars (*****)) | < 0.1
10 | 225 to 233 | COc1ccc(-c2cc(=O)n3cc(N4C[C@@H](C)N[C@@H](C)C4)cc(C)c3n2)cc1OC [Compound 332, 2-(3,4-dimethoxyphenyl)-7-[(3R,5S)-3,5-dimethylpiperazin-1-yl]-9-methyl-4H-pyrido[1,2-a]pyrimidin-4-one] | – | * (A maximum fold increase of ≤1.2 is indicated by one star (*)) | 0.3 to 1
11 | 148 | COc1ccc(-c2cc(=O)n3cc(N4CCN(C)[C@H](C)C4)cc(C)c3n2)cc1OC [Compound 333, 2-(3,4-dimethoxyphenyl)-7-[(3R)-3,4-dimethylpiperazin-1-yl]-9-methyl-4H-pyrido[1,2-a]pyrimidin-4-one] | ** (an EC1.5× between >1 μM and ≤3 μM is indicated by two stars (**)) | **** (a fold increase between >1.5 and ≤1.65 is indicated by four stars (****)) | 0.1 to 0.3
12 | 169 to 171 | Cc1cn2nc(-c3cc(=O)n4cc(N5CCCN(C)CC5)ccc4n3)cc2c(C)n1 [Compound 334, 2-(4,6-dimethylpyrazolo[1,5-a]pyrazin-2-yl)-7-(4-methyl-1,4-diazepan-1-yl)-4H-pyrido[1,2-a]pyrimidin-4-one] | **** (an EC1.5x≤0.3 μM is indicated by four stars (****)) | ***** (a fold increase >1.65 is indicated by five stars (*****)) | < 0.1
13 | 215 to 218 | Cc1cn2nc(-c3cc(=O)n4cc(N5CCN6CCC[C@H]6C5)ccc4n3)cc2c(C)n1 [Compound 336, 2-(4,6-dimethylpyrazolo[1,5-a]pyrazin-2-yl)-7-[(8aS)-hexahydropyrrolo[1,2-a]pyrazin-2(1H)-yl]-4H-pyrido[1,2-a]pyrimidin-4-one] | **** (an EC1.5x≤0.3 μM is indicated by four stars (****)) | ***** (a fold increase >1.65 is indicated by five stars (*****)) | 0.1 to 0.3
14 | 228 to 230 | Cc1cn2nc(-c3cc(=O)n4cc(N5CCN6CCC[C@@H]6C5)ccc4n3)cc2c(C)n1 [Compound 337, 2-(4,6-dimethylpyrazolo[1,5-a]pyrazin-2-yl)-7-[(8aR)-hexahydropyrrolo[1,2-a]pyrazin-2(1H)-yl]-4H-pyrido[1,2-a]pyrimidin-4-one] | **** (an EC1.5x≤0.3 μM is indicated by four stars (****)) | ***** (a fold increase >1.65 is indicated by five stars (*****)) | < 0.1
15 | 251 to 253 | CCN1CCN(c2ccc3nc(-c4cc5c(C)nc(C)cn5n4)cc(=O)n3c2)CC1 [Compound 338, 2-(4,6-dimethylpyrazolo[1,5-a]pyrazin-2-yl)-7-(4-ethylpiperazin-1-yl)-4H-pyrido[1,2-a]pyrimidin-4-one] | **** (an EC1.5x≤0.3 μM is indicated by four stars (****)) | ***** (a fold increase >1.65 is indicated by five stars (*****)) | < 0.1
16 | 208 to 210 | Cc1cn2nc(-c3cc(=O)n4cc(N5CCC(N(C)C)CC5)ccc4n3)cc2c(C)n1 [Compound 339, 7-[4-(dimethylamino)piperidin-1-yl]-2-(4,6-dimethylpyrazolo[1,5-a]pyrazin-2-yl)-4H-pyrido[1,2-a]pyrimidin-4-one] | **** (an EC1.5x≤0.3 μM is indicated by four stars (****)) | ***** (a fold increase >1.65 is indicated by five stars (*****)) | < 0.1

Row | SMILES | melting point [°C] | EC1.5x for Smn protein expression [1] | maximum fold (Fold) increase of Smn protein [1] | EC (1.5-fold increase) [2] [µM]
17 | CCN1CC=C(c2ccc3nc(-c4cc(F)c5nc(C)oc5c4)cc(=O)n3c2)CC1 [Compound 318, 7-(1-ethyl-1,2,3,6-tetrahydropyridin-4-yl)-2-(4-fluoro-2-methyl-1,3-benzoxazol-6-yl)-4H-pyrido[1,2-a]pyrimidin-4-one] | 151 to 154 | **** (an EC1.5x≤0.3 μM is indicated by four stars (****)) | ***** (a fold increase >1.65 is indicated by five stars (*****)) | < 0.1
18 | CCCN1CC=C(c2ccc3nc(-c4cc(F)c5nc(C)oc5c4)cc(=O)n3c2)CC1 [Compound 319, 2-(4-fluoro-2-methyl-1,3-benzoxazol-6-yl)-7-(1-propyl-1,2,3,6-tetrahydropyridin-4-yl)-4H-pyrido[1,2-a]pyrimidin-4-one] | 159 to 162 | **** (an EC1.5x≤0.3 μM is indicated by four stars (****)) | **** (a fold increase between >1.5 and ≤1.65 is indicated by four stars (****)) | < 0.1
